Results on seven molecules are retold here after PubChem BioAssay (NCI).

“And” between values parts separate entries of the source, which are not always exact repeats. Equal values may be shown once.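 The compound was tested at five concentrations on cells cultured in 96-well plates, with a 48-hour exposure period. At the GI50, growth is halved. The concentration for full growth arrest is given as TGI.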

Some test systems named below: ACHN renal; LOX IMVI melanoma; PC-3 prostate; SK-MEL-5 melanoma; SK-OV-3 ovarian; EKVX NSCLC; MOLT-4 leukemia; RXF 393 renal; RPMI-8226 leukemia; 786-0 renal.
Common to all, as to test: NCI anticancer screen, dose series, 48 h

For `O=C(CNC(=O)c1cccc2ccccc12)Nc1ccccc1Oc1ccc(O)cc1`, the GI50 with ACHN renal was 1860 nM; in the assay with LOX IMVI melanoma, 1720 nM; in the assay on PC-3 prostate, 1310 nM; in the assay on SK-MEL-5 melanoma, 846 nM; in the assay with SK-OV-3 ovarian it was 1.59 µM; in the assay with EKVX NSCLC, 1.17 µM. The GI50 is 1210 nM with MOLT-4 leukemia, 500 nM in the assay with RXF 393 renal, 970 nM in the assay with RPMI-8226 leukemia and 1040 nM with 786-0 renal. In addition, the TGI in the assay with ACHN renal, in the assay on LOX IMVI melanoma, in the assay with PC-3 prostate, in the assay on SK-MEL-5 melanoma, in the assay with SK-OV-3 ovarian and in the assay on EKVX NSCLC was > 25 µM in each case. For the same molecule, the TGI in the assay on MOLT-4 leukemia is > 25 µM; with RXF 393 renal, 1720 nM; with RPMI-8226 leukemia, 10.4 µM; in the assay with 786-0 renal it was > 25 µM.

In the case of `COc1cc2nc(NC3CCC3)nc(NC3CCN(C(C)C)CC3)c2cc1OC`, the GI50 in the assay with ACHN renal was 2700 nM; in the assay on LOX IMVI melanoma it was 1720 nM; in the assay on PC-3 prostate it was 3510 nM; in the assay with SK-MEL-5 melanoma, 1750 nM; in the assay on SK-OV-3 ovarian, 8 µM; in the assay with EKVX NSCLC, 4.65 µM. The GI50 is 2830 nM in the assay with MOLT-4 leukemia, 1380 nM in the assay on RXF 393 renal, 1710 nM in the assay on RPMI-8226 leukemia and 1850 nM with 786-0 renal. Further, the TGI in the assay with ACHN renal worked out at 7.4 µM; with LOX IMVI melanoma it was 3.23 µM; in the assay with PC-3 prostate, 20.7 µM; in the assay on SK-MEL-5 melanoma, 3.15 µM; with SK-OV-3 ovarian, 33.7 µM; with EKVX NSCLC, 23.4 µM. In addition, the TGI in the assay on MOLT-4 leukemia was determined as 8.48 µM; with RXF 393 renal, 2850 nM; in the assay with RPMI-8226 leukemia, 4.06 µM; with 786-0 renal it was 3.91 µM.

Turning to `CCCCCCCCCCCCNC(=O)N[C@H](C(=O)N[C@H]1/C=C/OCCNC(=O)/C=C/[C@H](C(C)C)NC1=O)C(C)C`, the GI50 with ACHN renal is 51300 nM; with LOX IMVI melanoma, 9400 nM; in the assay on PC-3 prostate, 682 nM; in the assay on SK-MEL-5 melanoma it was 2030 nM; in the assay on SK-OV-3 ovarian, > 75.3 µM; with EKVX NSCLC, 36.6 µM. For the same molecule, the GI50 was 3260 nM in the assay with MOLT-4 leukemia, 3650 nM in the assay with RXF 393 renal, 389 nM with RPMI-8226 leukemia and 40100 nM with 786-0 renal. The TGI was > 100 µM with ACHN renal; 36.4 µM in the assay on LOX IMVI melanoma; > 100 µM in the assay on PC-3 prostate; 14.8 µM in the assay with SK-MEL-5 melanoma; > 100 µM in the assay with SK-OV-3 ovarian; > 100 µM in the assay on EKVX NSCLC. The TGI in the assay with MOLT-4 leukemia was > 100 µM; in the assay on RXF 393 renal it was 28200 nM; with RPMI-8226 leukemia, 59.4 µM; in the assay on 786-0 renal, > 100 µM.

`O=C1Nc2ccc(I)cc2/C1=C/c1cc(Br)c(O)c(Br)c1`: the GI50 with ACHN renal is > 19800 nM and 21800 nM; in the assay on LOX IMVI melanoma it was > 17500 nM and 16200 nM; in the assay on PC-3 prostate it was > 17700 nM and 23300 nM; with SK-MEL-5 melanoma, 13000 nM and 10500 nM; in the assay on SK-OV-3 ovarian, > 25 µM and 17.9 µM; with EKVX NSCLC it was > 17.5 µM and 13.8 µM. Further, the GI50 in the assay on MOLT-4 leukemia was > 60100 nM; in the assay with RXF 393 renal, > 16600 nM and 12000 nM; in the assay on RPMI-8226 leukemia, 15300 nM and 6810 nM; in the assay on 786-0 renal it was > 24100 nM and 18200 nM. For the same molecule, the TGI is > 85.8 µM with ACHN renal; > 79 µM in the assay with LOX IMVI melanoma; > 74.7 µM in the assay on PC-3 prostate; > 25 µM and 23.6 µM in the assay on SK-MEL-5 melanoma; > 25 µM and 47.5 µM in the assay with SK-OV-3 ovarian; > 84.1 µM with EKVX NSCLC. Further, the TGI is > 100 µM in the assay on MOLT-4 leukemia; > 25000 nM and 28300 nM in the assay on RXF 393 renal; > 100 µM in the assay on RPMI-8226 leukemia; > 25 µM and 45.5 µM in the assay on 786-0 renal.

Consider `COc1cnc2c(c1)C(=O)c1c-2n(CCCN2CCNCC2)c(=O)c2cc(F)ccc12`, for which the GI50 is 55.3 nM in the assay on ACHN renal; 180 nM with LOX IMVI melanoma; 596 nM with PC-3 prostate; 217 nM in the assay with SK-MEL-5 melanoma; 0.21 µM in the assay with SK-OV-3 ovarian; 0.441 µM in the assay with EKVX NSCLC. The GI50 with MOLT-4 leukemia was 27.5 nM; in the assay with RXF 393 renal, 270 nM; with RPMI-8226 leukemia, 50.5 nM; in the assay on 786-0 renal, 127 nM. For the same molecule, the TGI with ACHN renal was determined as 0.554 µM; in the assay with LOX IMVI melanoma, 1.32 µM; in the assay on PC-3 prostate, 2.51 µM; in the assay with SK-MEL-5 melanoma it was 1.65 µM; with SK-OV-3 ovarian it was 0.916 µM; in the assay on EKVX NSCLC, 2.08 µM. In addition, the TGI in the assay with MOLT-4 leukemia is 0.164 µM; in the assay on RXF 393 renal, 1730 nM; in the assay with RPMI-8226 leukemia, 0.458 µM; in the assay with 786-0 renal it was 0.511 µM.

As for `COc1cccc(-c2cc(-c3ccc(Nc4nc(Nc5ccc(Cl)cc5)nc(Nc5ccc(Cl)cc5)n4)cc3)nc(N)c2C#N)c1`, the GI50 in the assay on ACHN renal is 1980 nM; in the assay with LOX IMVI melanoma it was 2220 nM; in the assay with PC-3 prostate it was 2010 nM; with SK-MEL-5 melanoma, 2030 nM; in the assay with SK-OV-3 ovarian, 24.9 µM; in the assay on EKVX NSCLC, 4.79 µM. Also, the GI50 in the assay with MOLT-4 leukemia is 1630 nM; in the assay on RXF 393 renal it was 1440 nM; in the assay on RPMI-8226 leukemia, 1770 nM; with 786-0 renal it was 1770 nM. In addition, the TGI is 4.5 µM in the assay on ACHN renal; 6.44 µM in the assay with LOX IMVI melanoma; 12 µM in the assay on PC-3 prostate; 6.35 µM in the assay with SK-MEL-5 melanoma; > 63.9 µM in the assay with SK-OV-3 ovarian; 16.3 µM in the assay on EKVX NSCLC. In addition, the TGI is 4.93 µM with MOLT-4 leukemia, 3680 nM in the assay with RXF 393 renal, > 27.9 µM with RPMI-8226 leukemia and 3.43 µM with 786-0 renal.

Consider `O=c1c2cc(F)ccc2sc2c(NCCCNCCO)nc3ccc(F)cc3c12`, for which the GI50 in the assay with ACHN renal is 1540 nM; with LOX IMVI melanoma, 1570 nM; in the assay with PC-3 prostate, 1670 nM; in the assay with SK-MEL-5 melanoma it was 1700 nM; in the assay on EKVX NSCLC, 1.52 µM; in the assay with RXF 393 renal it was 1510 nM. The GI50 in the assay on RPMI-8226 leukemia is 2300 nM; in the assay with 786-0 renal it was 1630 nM. For the same molecule, the TGI with ACHN renal came to 2.89 µM; with LOX IMVI melanoma, 3.06 µM; in the assay on PC-3 prostate, 3.3 µM; in the assay with SK-MEL-5 melanoma, 3.15 µM; in the assay on EKVX NSCLC it was 3.07 µM; in the assay on RXF 393 renal, 2950 nM. In addition, the TGI turned out to be 5.1 µM in the assay on RPMI-8226 leukemia and 3.32 µM in the assay on 786-0 renal.
